{"source": "patent US20150105252A1", "about": "“SUBSTITUTED PYRAZOLES AS HERBICIDES” (E I DU PONT DE NEMOURS AND COMPANY, priority 2013, published 2015)", "key": {"nutsedge, yellow": {"test_system": "nutsedge, yellow", "assay": "Test C postemergence", "format": "in vivo, Cyperus esculentus", "outline": "(§1)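 In this greenhouse assay, seeded soil (loam plus sand) or emerged seedlings in peat-vermiculite medium were treated with formulated compound. Roughly two weeks later (13–15 days), each species was scored visually relative to controls, from 0 for no effect to 100 for complete control.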"}, "lambsquarters [1]": {"test_system": "lambsquarters", "assay": "Test C preemergence", "format": "in vivo, Chenopodium album", "outline": "as §1"}, "pigweed": {"test_system": "pigweed", "assay": "Test C postemergence", "format": "in vivo, Amaranthus retroflexus", "outline": "as §1"}, "foxtail, giant": {"test_system": "foxtail, giant", "assay": "Test C postemergence", "format": "in vivo, Setaria faberii", "outline": "as §1"}, "kochia": {"test_system": "kochia", "assay": "Test C postemergence", "format": "in vivo, Kochia scoparia", "outline": "as §1"}, "waterhemp": {"test_system": "waterhemp", "assay": "Test C postemergence", "format": "in vivo, Amaranthus rudis", "outline": "as §1"}, "galium": {"test_system": "galium", "assay": "Test C postemergence", "format": "in vivo, Galium aparine", "outline": "as §1"}, "velvetleaf": {"test_system": "velvetleaf", "assay": "Test C postemergence", "format": "in vivo, Abutilon theophrasti", "outline": "as §1"}, "chickweed": {"test_system": "chickweed", "assay": "Test C postemergence", "format": "in vivo, Stellaria media", "outline": "as §1"}, "oat, wild": {"test_system": "oat, wild", "assay": "Test C postemergence", "format": "in vivo, Avena fatua", "outline": "as §1"}, "soybean": {"test_system": "soybean", "assay": "Test C postemergence", "format": "in vivo, Glycine max", "outline": "as §1"}, "barnyardgrass": {"test_system": "barnyardgrass", "assay": "Test C postemergence", "format": "in vivo, Echinochloa crus-galli", "outline": "as §1"}, "ragweed": {"test_system": "ragweed", "assay": "Test C postemergence", "format": "in vivo, Ambrosia elation", "outline": "as §1"}, "morningglory": {"test_system": "morningglory", "assay": "Test C postemergence", "format": "in vivo, Ipomoea coccinea", "outline": "as §1"}, "ryegrass, Italian": {"test_system": "ryegrass, Italian", "assay": "Test C postemergence", "format": "in vivo, Lolium multiflorum", "outline": "as §1"}, "lambsquarters [2]": {"test_system": "lambsquarters", "assay": "Test C postemergence", "format": "in vivo, Chenopodium album", "outline": "as §1"}, "[3]": {"conditions": "Postemergence, 31 g ai/ha, visually evaluated after 13 to 15 days"}, "[4]": {"conditions": "postemergence, 62 g ai/ha, scale 0 to 100"}, "[5]": {"conditions": "postemergence, 250 g ai/ha, scale 0 to 100 (0 no effect, 100 complete control)"}, "[6]": {"conditions": "postemergence, 125 g ai/ha, scale 0 to 100, 0 no effect, 100 complete control"}}}
{"smiles": "CCCc1cc(C(=O)NCC)nn1Cc1ccnc(C(F)(F)F)c1", "note": "[Compound 95]", "values": [{"measurement": "Plant response rating (scale of 0 to 100 where 0 is no effect and 100 is complete control), Nutsedge, Yellow", "setting": "nutsedge, yellow; [3]", "result": 0}, {"measurement": "Nutsedge, Yellow plant response rating", "setting": "nutsedge, yellow; [4]", "result": 0}, {"measurement": "Plant response rating, Nutsedge, Yellow", "setting": "nutsedge, yellow; [5]", "result": 10}, {"measurement": "Plant response rating, Nutsedge, Yellow", "setting": "nutsedge, yellow; [6]", "result": 5}, {"measurement": "Plant response rating (scale of 0 to 100), Lambsquarters", "setting": "lambsquarters [1]; Preemergence, 250 g ai/ha", "result": 100}, {"measurement": "Lambsquarters plant response rating", "setting": "lambsquarters [1]; preemergence, 31 g ai/ha, visual rating, scale 0 to 100 (0 no effect, 100 complete control), 13 to 15 days", "result": 100}, {"measurement": "Plant response rating, Lambsquarters", "setting": "lambsquarters [1]; preemergence, 62 g ai/ha, 13 to 15 days, scale 0 to 100, 0 = no effect, 100 = complete control", "result": 100}, {"measurement": "Lambsquarters plant response rating", "setting": "lambsquarters [1]; preemergence, 125 g ai/ha, scale 0 to 100, 0 is no effect, 100 is complete control", "result": 100}, {"measurement": "Plant response rating (scale of 0 to 100 where 0 is no effect and 100 is complete control), Pigweed", "setting": "pigweed; [3]", "result": 10}, {"measurement": "Pigweed plant response rating", "setting": "pigweed; [4]", "result": 40}, {"measurement": "Plant response rating, Pigweed", "setting": "pigweed; [5]", "result": 70}, {"measurement": "Plant response rating, Pigweed", "setting": "pigweed; [6]", "result": 40}, {"measurement": "Plant response rating (scale of 0 to 100 where 0 is no effect and 100 is complete control), Foxtail, Giant", "setting": "foxtail, giant; [3]", "result": 5}, {"measurement": "Foxtail, Giant plant response rating", "setting": "foxtail, giant; [4]", "result": 40}, {"measurement": "Plant response rating, Foxtail, Giant", "setting": "foxtail, giant; [5]", "result": 60}, {"measurement": "Plant response rating, Foxtail, Giant", "setting": "foxtail, giant; [6]", "result": 45}, {"measurement": "Plant response rating (scale of 0 to 100 where 0 is no effect and 100 is complete control), Kochia", "setting": "kochia; [3]", "result": 50}, {"measurement": "Kochia plant response rating", "setting": "kochia; [4]", "result": 70}, {"measurement": "Plant response rating, Kochia", "setting": "kochia; [5]", "result": 85}, {"measurement": "Plant response rating, Kochia", "setting": "kochia; [6]", "result": 85}, {"measurement": "Plant response rating (scale of 0 to 100 where 0 is no effect and 100 is complete control), Waterhemp", "setting": "waterhemp; [3]", "result": 30}, {"measurement": "Waterhemp plant response rating", "setting": "waterhemp; [4]", "result": 30}, {"measurement": "Plant response rating, Waterhemp", "setting": "waterhemp; [5]", "result": 30}, {"measurement": "Plant response rating, Waterhemp", "setting": "waterhemp; [6]", "result": 30}, {"measurement": "Plant response rating (scale of 0 to 100 where 0 is no effect and 100 is complete control), Galium", "setting": "galium; [3]", "result": 60}, {"measurement": "Galium plant response rating", "setting": "galium; [4]", "result": 80}, {"measurement": "Plant response rating, Galium", "setting": "galium; [5]", "result": 90}, {"measurement": "Plant response rating, Galium", "setting": "galium; [6]", "result": 90}, {"measurement": "Plant response rating (scale of 0 to 100 where 0 is no effect and 100 is complete control), Velvetleaf", "setting": "velvetleaf; [3]", "result": 10}, {"measurement": "Velvetleaf plant response rating", "setting": "velvetleaf; [4]", "result": 15}, {"measurement": "Plant response rating, Velvetleaf", "setting": "velvetleaf; [5]", "result": 40}, {"measurement": "Plant response rating, Velvetleaf", "setting": "velvetleaf; [6]", "result": 35}, {"measurement": "Plant response rating (scale of 0 to 100 where 0 is no effect and 100 is complete control), Chickweed", "setting": "chickweed; [3]", "result": 85}, {"measurement": "Chickweed plant response rating", "setting": "chickweed; [4]", "result": 100}, {"measurement": "Plant response rating, Chickweed", "setting": "chickweed; [5]", "result": 100}, {"measurement": "Plant response rating, Chickweed", "setting": "chickweed; [6]", "result": 100}, {"measurement": "Plant response rating (scale of 0 to 100 where 0 is no effect and 100 is complete control), Oat, Wild", "setting": "oat, wild; [3]", "result": 5}, {"measurement": "Oat, Wild plant response rating", "setting": "oat, wild; [4]", "result": 5}, {"measurement": "Plant response rating, Oat, Wild", "setting": "oat, wild; [5]", "result": 50}, {"measurement": "Plant response rating, Oat, Wild", "setting": "oat, wild; [6]", "result": 15}, {"measurement": "Plant response rating (scale of 0 to 100 where 0 is no effect and 100 is complete control), Soybean", "setting": "soybean; [3]", "result": 45}, {"measurement": "Soybean plant response rating", "setting": "soybean; [4]", "result": 50}, {"measurement": "Plant response rating, Soybean", "setting": "soybean; [6]", "result": 80}, {"measurement": "Plant response rating (scale of 0 to 100 where 0 is no effect and 100 is complete control), Barnyardgrass", "setting": "barnyardgrass; [3]", "result": 0}, {"measurement": "Barnyardgrass plant response rating", "setting": "barnyardgrass; [4]", "result": 0}, {"measurement": "Plant response rating, Barnyardgrass", "setting": "barnyardgrass; [5]", "result": 30}, {"measurement": "Plant response rating, Barnyardgrass", "setting": "barnyardgrass; [6]", "result": 0}, {"measurement": "Plant response rating (scale of 0 to 100 where 0 is no effect and 100 is complete control), Ragweed", "setting": "ragweed; [3]", "result": 45}, {"measurement": "Ragweed plant response rating", "setting": "ragweed; [4]", "result": 50}, {"measurement": "Plant response rating, Ragweed", "setting": "ragweed; [5]", "result": 85}, {"measurement": "Plant response rating, Ragweed", "setting": "ragweed; [6]", "result": 50}, {"measurement": "Plant response rating (scale of 0 to 100 where 0 is no effect and 100 is complete control), Morningglory", "setting": "morningglory; [3]", "result": 50}, {"measurement": "Morningglory plant response rating", "setting": "morningglory; [4]", "result": 50}, {"measurement": "Plant response rating, Morningglory", "setting": "morningglory; [5]", "result": 70}, {"measurement": "Plant response rating, Morningglory", "setting": "morningglory; [6]", "result": 50}, {"measurement": "Plant response rating (scale of 0 to 100 where 0 is no effect and 100 is complete control), Ryegrass, Italian", "setting": "ryegrass, Italian; [3]", "result": 5}, {"measurement": "Ryegrass, Italian plant response rating", "setting": "ryegrass, Italian; [4]", "result": 5}, {"measurement": "Plant response rating, Ryegrass, Italian", "setting": "ryegrass, Italian; [5]", "result": 30}, {"measurement": "Plant response rating, Ryegrass, Italian", "setting": "ryegrass, Italian; [6]", "result": 5}, {"measurement": "Plant response rating (scale of 0 to 100 where 0 is no effect and 100 is complete control), Lambsquarters", "setting": "lambsquarters [2]; [3]", "result": 40}, {"measurement": "Lambsquarters plant response rating", "setting": "lambsquarters [2]; [4]", "result": 80}, {"measurement": "Plant response rating, Lambsquarters", "setting": "lambsquarters [2]; [5]", "result": 98}, {"measurement": "Plant response rating, Lambsquarters", "setting": "lambsquarters [2]; [6]", "result": 90}]}
